Key:
[1] = format: physicochemical
Method: Without wishing to be bound, it is believed that separation is more favored at higher temperatures at least in part due to factors including conformational changes as well as solubility differences that are a function of temperature. At room temperature, the solubility of Reb B in a 94 weight percent ethanol solution saturated with Reb A is about 0.3 g per 100 g of solvent, and the solubility of Reb D is about 0.01 g per 100 g. At 100° C., concentrations of Reb D as high as 0.2 g/100 g are observed, and concentrations of Reb B as high as 0.5 g/100 g are observed. The solubility of Reb A in 94 wt % ethanol varies to a much smaller extent.

[2] = relative to sucrose; background statement; cited from earlier work

| Compound | concentrations observed in solution [1] [g/100 g] | solubility [1] | sweetness, times the sweetness of sucrose [2] |
| --- | --- | --- | --- |
| C=C1C[C@@]23CC[C@H]4[C@@](C)(CCC[C@@]4(C)C(=O)O[C@@H]4O[C@H](CO)[C@@H](O)[C@H](O)[C@H]4O[C@@H]4O[C@H](CO)[C@@H](O)[C@H](O)[C@H]4O)[C@@H]2CC[C@]1(O[C@@H]1O[C@H](CO)[C@@H](O)[C@H](O[C@@H]2O[C@H](CO)[C@@H](O)[C@H](O)[C@H]2O)[C@H]1O[C@@H]1O[C@H](CO)[C@@H](O)[C@H](O)[C@H]1O)C3 [Reb D, rebaudioside D] | ≤ 0.2 | about 0.01 g per 100 g of solvent | – |
| C=C1C[C@@]23CC[C@H]4[C@@](C)(CCC[C@@]4(C)C(=O)O[C@@H]4O[C@H](CO)[C@@H](O)[C@H](O)[C@H]4O)[C@@H]2CC[C@]1(O[C@@H]1O[C@H](CO)[C@@H](O)[C@H](O[C@@H]2O[C@H](CO)[C@@H](O)[C@H](O)[C@H]2O)[C@H]1O[C@@H]1O[C@H](CO)[C@@H](O)[C@H](O)[C@H]1O)C3 [Rebaudioside A, rebaudioside A] | – | – | 250-450 times |
| rebaudioside B [Reb B] | ≤ 0.5 | about 0.3 g per 100 g of solvent | – |

Source: US9024012B2, “Methods to treat mixtures of glycosides to obtain one or more of these glycosides in more pure form” (Cargill, Incorporated, priority 2010, dated 2015)
